Test results taken from PubChem BioAssay (NCI).
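Dose response: 5 concentrations. Exposure: 48 h. Format: 96-well plates. Endpoint: linear interpolation; highest concentration if not reached. At the GI50, growth is halved. At the TGI there is no net growth.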

Legend:
Assay in all cases: NCI tumour cell line growth inhibition, 48 h
A549 NSCLC = test system: A549 NSCLC
HOP-62 NSCLC = test system: HOP-62 NSCLC
MDA-MB-435 = test system: MDA-MB-435
MDA-N = test system: MDA-N
NCI-H226 lung = test system: NCI-H226 lung
NCI-H522 lung = test system: NCI-H522 lung
NCI/ADR-RES ovarian = test system: NCI/ADR-RES ovarian
RPMI-8226 leukemia = test system: RPMI-8226 leukemia
SK-OV-3 ovarian = test system: SK-OV-3 ovarian
SN12C renal = test system: SN12C renal
SNB-19 CNS = test system: SNB-19 CNS
SNB-75 CNS = test system: SNB-75 CNS
TK-10 renal = test system: TK-10 renal
UACC-257 melanoma = test system: UACC-257 melanoma
UACC-62 melanoma = test system: UACC-62 melanoma
UO-31 renal = test system: UO-31 renal
K-562 leukemia = test system: K-562 leukemia

Compound	TGI (A549 NSCLC) [µM]	TGI (HOP-62 NSCLC) [µM]	TGI (MDA-MB-435) [µM]	TGI (MDA-N) [µM]	TGI (NCI-H226 lung) [µM]	TGI (NCI-H522 lung) [µM]	TGI (NCI/ADR-RES ovarian) [µM]	TGI (RPMI-8226 leukemia) [µM]	TGI (SK-OV-3 ovarian) [µM]	TGI (SN12C renal) [µM]	TGI (SNB-19 CNS) [µM]	TGI (SNB-75 CNS) [µM]	TGI (TK-10 renal) [µM]	TGI (UACC-257 melanoma) [µM]	TGI (UACC-62 melanoma) [µM]	TGI (UO-31 renal) [µM]	TGI (K-562 leukemia) [µM]	GI50 (NCI/ADR-RES ovarian) [µM]
C[C@@H]1CCC2[C@@H](C)[C@@H](OCCO[C@H]3OC4O[C@@]5(C)CCC6[C@H](C)CCC([C@H]3C)[C@@]46OO5)OC3O[C@@]4(C)CCC1[C@]32OO4 (stereo partly specified)	> 100	> 100	98.9	> 100	> 100	> 100	3.14	> 100	> 100	> 100	> 100	> 100	> 100	> 100	> 100	> 100	–	–
CN1CCN(CN2C(=O)C3C4C=CC(C3C2=O)C2C(=O)N(CN3CCN(C)CC3)C(=O)C42)CC1 (stereo unspecified)	–	> 87.3	> 100	> 100	> 100	> 59.5	> 100	51.4	> 100	> 100	> 100	> 100	> 100	> 100	> 56.9	> 100	> 100	–
O=C(NCCCN(CCCCN(CCCNC(=O)C(F)(F)F)CCCc1ccccc1)CCCc1ccccc1)C(F)(F)F	3.73	–	3.35	3.04	27	3.51	15.5	7.97	5.6	5.8	4.17	2.56	3.79	3.32	3.36	2.52	> 100	–
O=C1NN=C2C=C(c3ccc(Cl)cc3)CC(c3cccc(Cl)c3)C12 (stereo unspecified)	37.2	> 100	40.2	65.3	60.6	42.8	> 100	57	> 100	57.5	36.1	–	48.1	48.5	33.6	66.4	41.8	–
C[C@@]12CCC3C1C=C1C(=O)c4cc(O)ccc4C(=O)[C@]1(O2)[C@@]3(C)C=O	27.2	20.2	11.3	12.6	44.5	11.4	49.5	9.01	21.5	8.85	18.4	–	21.7	18.7	16.6	13.7	12.5	–
COc1ccc(-c2nc(SCC(=O)N/N=C/c3ccc(O)c(OC)c3)[nH]c2-c2ccc(OC)cc2)cc1	> 100	71.7	> 100	52.3	–	53.8	> 100	–	> 100	41.1	> 100	> 100	> 100	69.5	27.4	> 100	57.8	–
CC(=C\c1ccccc1)/C=C(\C#N)C(N)=O	–	> 10	> 10	> 10	> 10	> 10	> 10	–	> 10	> 10	–	> 10	> 10	–	–	> 10	–	–
CC(=O)Nc1ccc2cc(C)c(=O)[nH]c2n1	> 100	–	> 100	> 100	–	> 100	> 100	> 100	> 100	> 100	> 100	> 100	> 100	> 100	> 100	> 100	> 100	–
COc1ccc(-c2c(C#N)c(O)n(NS(=O)(=O)c3ccc(C)cc3)c(=O)c2C#N)cc1	> 100	> 100	> 100	> 100	> 100	> 100	> 100	54.3	> 100	> 100	> 100	> 100	> 100	> 100	> 100	–	–	–
Cc1ccc(C(=O)N/N=C(\N=Nc2ccccc2[N+](=O)[O-])c2ccc(N(C)C)cc2)cc1	> 100	–	> 100	> 100	> 100	> 100	> 100	> 100	> 100	> 100	> 100	–	> 100	> 100	> 100	> 100	> 100	–
CC[C@]1(Cc2ccc(OC)c(OC)c2)[C@@H]2C[C@@H](C3OCCO3)ON2O[C@H](OC2CCCC2(c2ccccc2)c2ccccc2)[C@@H]1OC(C)=O (stereo partly specified)	79.5	41.5	46.9	> 100	36.5	29.7	53.9	–	> 100	> 100	36.9	46.3	> 100	43.9	> 100	37.7	39.1	–
O=C(c1cc(Cl)cc(Cl)c1)N1CCN(C(=O)c2cc(Cl)cc(Cl)c2)C1=S	44.6	33.8	29.9	34.5	49.8	25.7	> 100	–	29.8	31.1	37.1	27.8	23.2	28.8	23.5	6.08	> 50.8	31.7
COc1ccc(C(=O)/C=C/c2ccncc2)cc1OC	29.3	29.9	28.1	26.2	30.6	21.7	42.7	–	30.9	29.2	32.5	26.3	30	25.5	30	28.1	6.11	–
CCOC(=O)NC1CN2CCC1CC2 (stereo unspecified)	> 100	> 100	> 100	> 100	> 100	> 100	> 100	> 100	> 100	> 100	> 100	> 100	–	> 100	> 100	> 100	> 100	–
